Experimental data as given in patent publication US9777001B2 (priority 2014, dated 2017).
Structures can show the parent of a compound that is named as a salt.

Columns and labels:
human plasma kallikrein = human plasma kallikrein (Homo sapiens, UniProt P03952); test: biochemical; settings: purified human plasma kallikrein, substrate S-2302, sodium phosphate buffer pH 7.5
human Factor XIa = human Factor XIa (Homo sapiens, UniProt P03951); test: biochemical; settings: purified human Factor XIa, substrate S-2366, HEPES buffer pH 7.4
human Factor XIa, sequence (P03951 388-625 limits assumed): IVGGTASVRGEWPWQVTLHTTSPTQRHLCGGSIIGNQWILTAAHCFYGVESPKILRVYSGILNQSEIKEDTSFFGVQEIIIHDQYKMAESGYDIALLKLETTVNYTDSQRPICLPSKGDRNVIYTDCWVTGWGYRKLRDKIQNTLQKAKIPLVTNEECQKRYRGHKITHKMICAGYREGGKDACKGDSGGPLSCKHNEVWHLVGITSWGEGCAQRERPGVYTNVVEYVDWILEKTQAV
human Factor XIa, sequence (P03951 19-387 partner limits assumed): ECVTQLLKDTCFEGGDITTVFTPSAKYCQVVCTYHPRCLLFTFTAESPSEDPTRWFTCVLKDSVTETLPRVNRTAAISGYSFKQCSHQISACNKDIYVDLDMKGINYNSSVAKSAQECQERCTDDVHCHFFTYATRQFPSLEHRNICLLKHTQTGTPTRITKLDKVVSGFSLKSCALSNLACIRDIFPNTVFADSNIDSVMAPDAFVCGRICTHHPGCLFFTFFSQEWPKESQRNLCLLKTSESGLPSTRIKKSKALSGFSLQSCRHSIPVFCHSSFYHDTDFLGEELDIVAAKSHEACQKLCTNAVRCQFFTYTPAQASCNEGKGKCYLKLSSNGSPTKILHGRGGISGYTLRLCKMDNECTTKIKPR

human plasma kallikrein, sequence (P03952 391-638 limits assumed): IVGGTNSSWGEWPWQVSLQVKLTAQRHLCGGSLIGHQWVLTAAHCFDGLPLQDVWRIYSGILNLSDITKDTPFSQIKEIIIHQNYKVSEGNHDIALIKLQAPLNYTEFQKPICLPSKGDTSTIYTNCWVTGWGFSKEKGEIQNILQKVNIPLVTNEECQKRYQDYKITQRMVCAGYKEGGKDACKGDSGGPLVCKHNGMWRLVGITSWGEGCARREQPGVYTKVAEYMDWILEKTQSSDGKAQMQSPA
human plasma kallikrein, sequence (P03952 20-390 partner limits assumed): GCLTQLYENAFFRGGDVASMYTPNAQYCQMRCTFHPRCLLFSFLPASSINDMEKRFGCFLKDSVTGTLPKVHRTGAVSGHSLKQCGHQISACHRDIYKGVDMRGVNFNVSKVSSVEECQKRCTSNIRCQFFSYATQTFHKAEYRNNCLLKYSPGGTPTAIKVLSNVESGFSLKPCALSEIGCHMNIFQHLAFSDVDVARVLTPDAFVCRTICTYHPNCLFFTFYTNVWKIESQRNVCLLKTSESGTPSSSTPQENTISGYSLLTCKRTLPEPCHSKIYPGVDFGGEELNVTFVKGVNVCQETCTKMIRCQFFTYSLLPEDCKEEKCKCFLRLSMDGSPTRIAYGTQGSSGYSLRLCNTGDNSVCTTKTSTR

| Ki (human plasma kallikrein) [µM] | Ki (human Factor XIa) [µM] | Compound |
| --- | --- | --- |
| 0.018 | 0.00018 | C[C@@H]1CCC[C@H](n2cnc(-c3cc(Cl)ccc3-n3cc(C(F)(F)F)nn3)cc2=O)c2cc(ccn2)-c2ccc(CO)cc2NC1=O [Example 37, (10R,14S)-14-(4-{5-chloro-2-[4-(trifluoromethyl)-1H-1,2,3-triazol-1-yl]phenyl}-6-oxo-1,6-dihydropyrimidin-1-yl)-5-(hydroxymethyl)-10-methyl-8,16-diazatricyclo[13.3.1.0^2,7]nonadeca-1(19),2(7),3,5,15,17-hexaen-9-one trifluoroacetate] |
| 0.036 | 0.00044 | C[C@@H]1CCC[C@H](n2cnc(-c3cc(Cl)ccc3-n3cc(C(F)(F)F)nn3)cc2=O)c2cc(ccn2)-c2ccc(C(N)=O)cc2NC1=O [Example 76, (10R,14S)-14-(4-{5-chloro-2-[4-(trifluoromethyl)-1H-1,2,3-triazol-1-yl]phenyl}-6-oxo-1,6-dihydropyrimidin-1-yl)-10-methyl-9-oxo-8,16-diazatricyclo [13.3.1.0^2,7]nonadeca-1(19),2(7),3,5,15,17-hexaene-5-carboxamide] |
| 0.066 | 0.00063 | Cc1ccc(-n2cc(C(F)(F)F)nn2)c(-c2cc(=O)n([C@H]3CCC[C@@H](C)C(=O)Nc4ccccc4-c4ccnc3c4)cn2)c1 [Example 81, (10R,14S)-10-methyl-14-(4-{5-methyl-2[4-(trifluoromethyl)-1H-1,2,3-triazol-1-yl]phenyl}-6-oxo-1,6-dihydropyrimidin-1-yl)-8,16-diazatricyclo [13.3.1.0^2,7]nonadeca-1(19),2(7),3,5,15,17-hexaen-9-one] |
| 0.176 | 0.0019 | Cc1ccc(-n2cc(C(F)(F)F)nn2)c(-c2cc(=O)n([C@H]3CCC[C@@H](C)C(=O)Nc4cc(C#N)ccc4-c4ccnc3c4)cn2)c1 [Example 82, (10R,14S)-10-methyl-14-(4-{5-methyl-2-[4-(trifluoromethyl)-1H-1,2,3-triazol-1-yl]phenyl}-6-oxo-1,6-dihydropyrimidin-1-yl)-9-oxo-8,16-diazatricyclo [13.3.1.0^2,7]nonadeca-1(19),2(7),3,5,15,17-hexaene-5-carbonitrile] |
| 4 | 0.1 | C[C@@H]1CCC[C@H](n2cnc(-c3cc(Cl)ccc3-n3cc(Cl)nn3)cc2=O)c2cc(ccn2)-c2ccc(OC(F)F)cc2NC1=O [Example 93, (10R,14S)-14-{4-[5-chloro-2-(4-chloro-1H-1,2,3-triazol-1-yl)phenyl]-6-oxo-1,6-dihydropyrimidin-1-yl}-5-(difluoromethoxy)-10-methyl-8,16-diazatricyclo [13.3.1.0^2,7]nonadeca-1(19),2(7),3,5,15,17-hexaen-9-one trifluoroacetate] |
| 1.4 | 0.142 | COc1ccc(-n2cc(C(F)(F)F)nn2)c(-c2cc(=O)n([C@H]3CCC[C@@H](C)C(=O)Nc4ccc(F)cc4-c4cncc3c4)cn2)c1 [Example 107, (10R,14S)-4-Fluoro-14-(4-{5-methoxy-2-[4-(trifluoromethyl)-1H-1,2,3-triazol-1-yl]phenyl}-6-oxo-1,6-dihydropyrimidin-1-yl)-10-methyl-8,17-diazatricyclo[13.3.1.0^2,7]nonadeca-1(19),2(7),3,5,15,17-hexaen-9-one] |
| 0.019 | 0.00022 | C[C@@H]1CCC[C@H](n2cnc(-c3cc(Cl)ccc3-n3cc(Cl)nn3)cc2=O)c2ccnc(c2)-c2ccc(C#N)cc2NC1=O [Example 112, (10R,14S)-14-{4-[5-chloro-2-(4-chloro-1H-1,2,3-triazol-1-yl)phenyl]-6-oxo-1,6-dihydropyrimidin-1-yl}-10-methyl-9-oxo-8,18-diazatricyclo [13.3.1.0^2,7]nonadeca-1(19),2(7),3,5,15,17-hexaene-5-carbonitrile] |
|  | 0.00016 | C[C@@H]1CCC[C@H](n2cnc(-c3c(-n4cc(C(F)F)nn4)ccc(Cl)c3F)cc2=O)c2cc(ccn2)-c2cc(F)ccc2NC1=O [Example 134, (10R,14S)-14-(4-{3-chloro-6-[4-(difluoromethyl)-1H-1,2,3-triazol-1-yl]-2-fluorophenyl}-6-oxo-1,6-dihydropyrimidin-1-yl)-4-fluoro-10-methyl-8,16-diazatricyclo [13.3.1.0^2,7]nonadeca-1(19),2(7),3,5,15,17-hexaen-9-one trifluoroacetate] |
|  | 0.0001 | C[C@@H]1CCC[C@H](n2cnc(-c3cc(Cl)ccc3-n3cc(Cl)nn3)cc2=O)c2cc(ccn2)-c2cc(F)ccc2NC1=O [Example 140, (10R,14S)-14-{4-[5-chloro-2-(4-chloro-1H-1,2,3-triazol-1-yl)phenyl]-6-oxo-1,6-dihydropyrimidin-1-yl}-4-fluoro-10-methyl-8,16-diazatricyclo[13.3.1.0^2,7]nonadeca-1(19),2(7),3,5,15,17-hexaen-9-one trifluoroacetate] |
| 0.007 | 0.001 | C[C@@H]1CCC[C@H](n2cnc(-c3c(-n4cc(Cl)nn4)ccc(Cl)c3F)cc2=O)c2cc(ccn2)-c2cc(F)ccc2NC1=O [Example 142, (10R,14S)-14-{4-[3-chloro-6-(4-chloro-1H-1,2,3-triazol-1-yl)-2-fluorophenyl]-6-oxo-1,6-dihydropyrimidin-1-yl}-4-fluoro-10-methyl-8,16-diazatricyclo [13.3.1.0^2,7]nonadeca-1(19),2(7),3,5,15,17-hexaen-9-one trifluoroacetate] |
|  | 0.017 | C[C@@H]1CCC[C@H](n2cnc(-c3c(C(F)(F)F)ccc(Cl)c3F)cc2=O)c2cc(ccn2)-c2cc(F)ccc2NC1=O [Example 143, (10R,14S)-14-{4-[3-chloro-2-fluoro-6-(trifluoromethyl)phenyl]-6-oxo-1,6-dihydropyrimidin-1-yl}-4-fluoro-10-methyl-8,16-diazatricyclo[13.3.1.0^2,7]nonadeca-1(19),2(7),3,5,15,17-hexaen-9-one trifluoroacetate] |
| 0.1 | 0.0016 | C[C@H]1CCC[C@H](n2cnc(-c3cc(Cl)ccc3-n3cc(C(F)(F)F)nn3)cc2=O)c2ccnc(c2)-c2cc(F)ccc2NC1=O [Example 145, (10S,14S)-14-(4-{5-chloro-2-[4-(trifluoromethyl)-1H-1,2,3-triazol-1-yl]phenyl}-6-oxo-1,6-dihydropyrimidin-1-yl)-4-fluoro-10-methyl-8,18-diazatricyclo[13.3.1.0^2,7]nonadeca-1(19),2,4,6,15,17-hexaen-9-one] |
|  | 0.0001 | C[C@@H]1CCC[C@H](n2cnc(-c3cc(Cl)ccc3-n3cc(C#N)nn3)cc2=O)c2cc(ccn2)-c2cc(F)ccc2NC1=O [Example 148, 1-(4-chloro-2-{1-[(10R,14S)-4-fluoro-10-methyl-9-oxo-8,16-diazatricyclo [13.3.1.0^2,7]nonadeca-1(19),2(7),3,5,15,17-hexaen-14-yl]-6-oxo-1,6-dihydropyrimidin-4-yl}phenyl)-1H-1,2,3-triazole-4-carbonitrile trifluoroacetate] |
|  | 0.31 | COc1ccc(Cl)cc1-c1cc(=O)n([C@H]2CCC[C@@H](C)C(=O)Nc3ccc(F)cc3-c3ccnc2c3)cn1 [Example 150, (10R,14S)-14[4-(5-chloro-2-methoxyphenyl)-6-oxo-1,6-dihydropyrimidin-1-yl]-4-fluoro-10-methyl-8,16-diazatricyclo[13.3.1.0^2,7]nonadeca-1(19),2(7),3,5,15,17-hexaen-9-one trifluoroacetate] |
